Data as given in PubChem BioAssay (NCI).
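Briefly, cells in 96-well plates were exposed to five compound concentrations for 48 h, and endpoints were estimated by linear interpolation. At the GI50, growth is halved. At the TGI there is no net growth.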

Columns and labels:
Test in all cases: DTP human tumour cell line panel, 48 h
[1] = test system: SK-MEL-28 melanoma
[2] = test system: HCC-2998 colon
[3] = test system: COLO 205 colon
[4] = test system: CAKI-1 renal
[5] = test system: MDA-MB-435
[6] = test system: OVCAR-5 ovarian
[7] = test system: TK-10 renal
[8] = test system: A549 NSCLC
[9] = test system: SK-MEL-2 melanoma
[10] = test system: NCI-H460 lung

`NC(=O)c1cc([N+](=O)[O-])c(Cl)c([N+](=O)[O-])c1` was tested, and the GI50 [1] was 2.05 µM, the TGI [1] was 4.34 µM and the GI50 [2] was 2.61 µM. It also gave a TGI [2] of 7.46 µM, a GI50 [3] of 1.99 µM and a TGI [3] of 3.5 µM. For the same compound, the GI50 [4] was 2.59 µM, the TGI [4] was 7.12 µM and the GI50 [5] was 5.99 µM. It also gave a TGI [5] of 19.2 µM, a GI50 [6] of 5.53 µM and a TGI [6] of 17.6 µM. For the same compound, the GI50 [7] was 1.91 µM, the TGI [7] was 3.36 µM and the GI50 [8] was 16.9 µM. It also gave a TGI [8] of 32.2 µM, a GI50 [9] of 13.7 µM and a TGI [9] of 27.8 µM. The GI50 [10] was 15.7 µM and the TGI [10] was 38.2 µM.
`Cn1c(=O)c(Oc2ccc(F)cc2F)cc2cnc(NC(CO)CO)nc21` showed a GI50 [1] greater than 25 µM, a TGI [1] greater than 25 µM and a GI50 [2] greater than 25 µM. The TGI [2] was greater than 25 µM, the GI50 [3] was greater than 25 µM and the TGI [3] was greater than 25 µM. The GI50 [4] was greater than 25 µM, the TGI [4] was greater than 25 µM and the GI50 [5] was greater than 25 µM. For the same compound, the TGI [5] was greater than 25 µM, the GI50 [6] was greater than 25 µM and the TGI [6] was greater than 25 µM. For the same compound, the GI50 [7] was greater than 25 µM, the TGI [7] was greater than 25 µM and the GI50 [8] was greater than 25 µM. It also gave a TGI [8] greater than 25 µM, a GI50 [9] greater than 25 µM and a TGI [9] greater than 25 µM. For the same compound, the GI50 [10] was greater than 25 µM and the TGI [10] was greater than 25 µM.
Work on `N=c1c2c(-c3ccccc3)c(-c3ccccc3)n(Cc3ccccc3)c2ncn1CCCO` yielded a GI50 [1] of 1.44 µM, a TGI [1] of 3.4 µM and a GI50 [2] of 1.43 µM. The TGI [2] was 7.07 µM, the GI50 [3] was 0.681 µM and the TGI [3] was 2.02 µM. For the same compound, the GI50 [4] was 0.692 µM, the TGI [4] was 6.57 µM and the GI50 [5] was 1.61 µM. For the same compound, the TGI [5] was 16.8 µM, the GI50 [6] was 7.27 µM and the TGI [6] was 23.4 µM. The GI50 [7] was 5.37 µM, the TGI [7] was 19.3 µM and the GI50 [8] was 0.561 µM. It also gave a TGI [8] of 15.5 µM, a GI50 [9] of 1.77 µM and a TGI [9] of 5.64 µM. It also gave a GI50 [10] of 0.448 µM and a TGI [10] of 4.47 µM.
Compound `CN(c1ccc(NC(=O)Nc2ccc(OC(F)(F)F)cc2)cc1)c1ccnc(Nc2cccc(S(N)(=O)=O)c2)n1` has a GI50 [1] of 3.42 µM, a TGI [1] of 7 µM and a GI50 [2] of 5.11 µM. For the same compound, the TGI [2] was 9.27 µM, the GI50 [3] was 0.317 µM and the TGI [3] was 3.5 µM. It also gave a GI50 [4] of 6.45 µM, a TGI [4] of 20.8 µM and a GI50 [5] of 3.15 µM. It also gave a TGI [5] of 6.68 µM, a GI50 [6] of 5.47 µM and a TGI [6] of 13.7 µM. It also gave a GI50 [7] of 6.21 µM, a TGI [7] of 13 µM and a GI50 [8] of 2.68 µM. It also gave a TGI [8] of 9.83 µM, a GI50 [9] of 4.57 µM and a TGI [9] of 9.7 µM. The GI50 [10] was 0.428 µM and the TGI [10] was 4.51 µM.
`C[C@]12CC[C@@H]3c4ccc(O)cc4CC[C@H]3[C@@H]1CC[C@@H]2NS(=O)(=O)c1cccc(C(F)(F)F)c1` was tested, and the GI50 [1] was 5.87 µM, the TGI [1] was 19.1 µM and the GI50 [2] was 4.58 µM. For the same compound, the TGI [2] was 17.9 µM, the GI50 [3] was 2.12 µM and the TGI [3] was 4.13 µM. For the same compound, the GI50 [4] was 3.23 µM, the TGI [4] was 11.8 µM and the GI50 [5] was 2.8 µM. It also gave a TGI [5] of 8.62 µM, a GI50 [6] of 4.54 µM and a TGI [6] of 17.4 µM. The GI50 [7] was 4.05 µM, the TGI [7] was 13.3 µM and the GI50 [8] was 3.23 µM. The TGI [8] was 12.8 µM, the GI50 [9] was 3.7 µM and the TGI [9] was 13 µM. It also gave a GI50 [10] of 2.6 µM and a TGI [10] of 6.79 µM.
In the case of `Cn1ccnc1C(=O)/C=C/c1ccc(CC(=O)Nc2ccc(S(F)(F)(F)(F)F)cc2)cc1`, the GI50 [1] is reported as 2.83 µM, the TGI [1] is reported as 5.88 µM and the GI50 [2] is reported as 2.92 µM. It also gave a TGI [2] of 5.3 µM, a GI50 [3] of 3.08 µM and a TGI [3] of 6.66 µM. The GI50 [4] was 2.66 µM, the TGI [4] was 5.72 µM and the GI50 [5] was 4.04 µM. The TGI [5] was 12.5 µM, the GI50 [6] was 2.12 µM and the TGI [6] was 5.1 µM. The GI50 [7] was 4.05 µM, the TGI [7] was 9.5 µM and the GI50 [8] was 3.32 µM. The TGI [8] was 9.15 µM, the GI50 [9] was 3.59 µM and the TGI [9] was 10 µM. For the same compound, the GI50 [10] was 2.25 µM and the TGI [10] was 7.58 µM.
Compound `COc1ccn2c(C(C)=O)cc(C(=O)c3ccc4c(c3)Sc3ccccc3N4)c2c1` has a GI50 [1] of 0.884 µM, a TGI [1] greater than 100 µM and a GI50 [2] of 0.155 µM. For the same compound, the TGI [2] was greater than 47.8 µM, the GI50 [3] was 0.0724 µM and the TGI [3] was 0.183 µM. For the same compound, the GI50 [4] was 0.0527 µM, the TGI [4] was greater than 100 µM and the GI50 [5] was 0.019 µM. For the same compound, the TGI [5] was 0.0454 µM, the GI50 [6] was 0.229 µM and the TGI [6] was greater than 100 µM. It also gave a GI50 [7] of 0.34 µM, a TGI [7] greater than 100 µM and a GI50 [8] of 0.122 µM. The TGI [8] was greater than 100 µM, the TGI [9] was greater than 100 µM and the GI50 [10] was 0.113 µM. For the same compound, the TGI [10] was greater than 38 µM.
Work on `CCc1ccccc1N1CCN(C(=O)c2cc(OC)c(OC)c(OC)c2)CC1` yielded a TGI [1] greater than 70.2 µM, a TGI [2] of 2.09 µM and a TGI [3] of 0.108 µM. For the same compound, the TGI [4] was 43 µM, the TGI [5] was less than 0.0113 µM and the TGI [6] was greater than 100 µM. It also gave a TGI [7] greater than 93.3 µM, a TGI [8] of 72.4 µM and a TGI [9] of 2.78 µM. The TGI [10] was 2.8 µM.
`O=C1c2ccc3c4c5ccc(c24)C(=O)N1CCCOCCCCOCCCNCc1ccc(cc1)CNCCCOCCCCOCCCN(C3=O)C5=O` showed a GI50 [1] of 0.894 µM, a TGI [1] of 1.63 µM and a GI50 [2] of 0.928 µM. For the same compound, the TGI [2] was 1.68 µM, the GI50 [3] was 0.531 µM and the TGI [3] was 1.26 µM. The GI50 [4] was 0.834 µM, the TGI [4] was 1.71 µM and the GI50 [5] was 0.873 µM. The TGI [5] was 1.59 µM, the GI50 [6] was 0.944 µM and the TGI [6] was 1.81 µM. It also gave a GI50 [7] of 1.03 µM, a TGI [7] of 2.42 µM and a GI50 [8] of 1.01 µM. The TGI [8] was 2.07 µM, the GI50 [9] was 0.861 µM and the TGI [9] was 1.73 µM. For the same compound, the GI50 [10] was 0.972 µM and the TGI [10] was 2 µM.
For `COc1cc(C(O)c2nc3ccccc3s2)cc(OC)c1OC` (centres undefined), the GI50 [1] was greater than 100 µM, the TGI [1] was greater than 100 µM and the GI50 [2] was greater than 100 µM. The TGI [2] was greater than 100 µM, the GI50 [3] was greater than 100 µM and the TGI [3] was greater than 100 µM. For the same compound, the GI50 [4] was 4.89 µM, the TGI [4] was 93.9 µM and the GI50 [5] was 20.4 µM. The TGI [5] was greater than 100 µM, the GI50 [6] was greater than 100 µM and the TGI [6] was greater than 100 µM. For the same compound, the GI50 [7] was 47.3 µM, the TGI [7] was greater than 100 µM and the GI50 [8] was 86.7 µM. For the same compound, the TGI [8] was greater than 100 µM, the GI50 [9] was greater than 100 µM and the TGI [9] was greater than 100 µM. It also gave a GI50 [10] of 30.9 µM and a TGI [10] greater than 100 µM.
`COC(=O)c1cc(-c2cc(OC)c(OC)c(OC)c2)[nH]c1N/N=C/c1c(Cl)cccc1Cl` was tested, and the GI50 [1] was 2.8 µM, the TGI [1] was 12.4 µM and the GI50 [2] was 2.36 µM. The TGI [2] was 18.4 µM, the GI50 [3] was 4.49 µM and the TGI [3] was greater than 68 µM. The GI50 [4] was 1.61 µM, the TGI [4] was 11.4 µM and the GI50 [5] was 0.247 µM. For the same compound, the TGI [5] was 8.61 µM, the GI50 [6] was 2.25 µM and the TGI [6] was 13.4 µM. It also gave a GI50 [7] of 0.528 µM, a TGI [7] of 2.68 µM and a GI50 [8] of 4.97 µM. It also gave a TGI [8] of 23.3 µM, a GI50 [9] of 3.01 µM and a TGI [9] of 17.9 µM. For the same compound, the GI50 [10] was 1.48 µM and the TGI [10] was 18.3 µM.
Work on `O=C1/C(=C/c2ccc([N+](=O)[O-])o2)Oc2ccc(Br)cc21` yielded a GI50 [1] of 2.19 µM, a TGI [1] of 4.83 µM and a GI50 [2] of 8.01 µM. For the same compound, the TGI [2] was 27.5 µM, the GI50 [3] was 2.83 µM and the TGI [3] was 7.32 µM. The GI50 [4] was 2.31 µM, the TGI [4] was 6.59 µM and the GI50 [5] was 1.9 µM. For the same compound, the TGI [5] was 4.03 µM, the GI50 [6] was 2.57 µM and the TGI [6] was 9.17 µM. For the same compound, the GI50 [7] was 2.11 µM, the TGI [7] was 3.88 µM and the GI50 [8] was 18.5 µM. For the same compound, the TGI [8] was 35.3 µM, the GI50 [9] was 2.24 µM and the TGI [9] was 4.43 µM. It also gave a GI50 [10] of 10.6 µM and a TGI [10] of 24.2 µM.
Compound `COC1(O)C(=O)c2ccccc2OC1(OC)c1ccccc1` (centres undefined) has a TGI [1] greater than 100 µM, a TGI [2] greater than 100 µM and a TGI [3] greater than 100 µM. It also gave a TGI [4] greater than 100 µM, a TGI [5] greater than 100 µM and a TGI [6] greater than 100 µM. The TGI [7] was greater than 100 µM, the TGI [8] was greater than 100 µM and the TGI [9] was greater than 100 µM. The TGI [10] was greater than 100 µM.
